One assay addresses T1, BRG-1 (Homo sapiens, UniProt P51532).
T1 construct: made in house; host or cells: High Five insect cells
In words: ATPase catalytic activity of BRG-1, ADP-Glo in vitro biochemical assay. To be noted: ATPase catalytic activity, 30 nM BRG-1, 400 μM ATP. On the technique in general: ADP-Glo first removes unused ATP, then detects ADP through luciferase.

A further assay has as its target T2, BRM (Homo sapiens, UniProt P51531).
T2 construct: made in house; host or cells: High Five insect cells
In words: ATPase catalytic activity of BRM, ADP-Glo in vitro biochemical assay. Conditions: ATPase catalytic activity, 30 nM BRM, 400 μM ATP.

Like-named read-outs stand apart in the source and are kept apart here.

T1 sequence (P51532 whole entry): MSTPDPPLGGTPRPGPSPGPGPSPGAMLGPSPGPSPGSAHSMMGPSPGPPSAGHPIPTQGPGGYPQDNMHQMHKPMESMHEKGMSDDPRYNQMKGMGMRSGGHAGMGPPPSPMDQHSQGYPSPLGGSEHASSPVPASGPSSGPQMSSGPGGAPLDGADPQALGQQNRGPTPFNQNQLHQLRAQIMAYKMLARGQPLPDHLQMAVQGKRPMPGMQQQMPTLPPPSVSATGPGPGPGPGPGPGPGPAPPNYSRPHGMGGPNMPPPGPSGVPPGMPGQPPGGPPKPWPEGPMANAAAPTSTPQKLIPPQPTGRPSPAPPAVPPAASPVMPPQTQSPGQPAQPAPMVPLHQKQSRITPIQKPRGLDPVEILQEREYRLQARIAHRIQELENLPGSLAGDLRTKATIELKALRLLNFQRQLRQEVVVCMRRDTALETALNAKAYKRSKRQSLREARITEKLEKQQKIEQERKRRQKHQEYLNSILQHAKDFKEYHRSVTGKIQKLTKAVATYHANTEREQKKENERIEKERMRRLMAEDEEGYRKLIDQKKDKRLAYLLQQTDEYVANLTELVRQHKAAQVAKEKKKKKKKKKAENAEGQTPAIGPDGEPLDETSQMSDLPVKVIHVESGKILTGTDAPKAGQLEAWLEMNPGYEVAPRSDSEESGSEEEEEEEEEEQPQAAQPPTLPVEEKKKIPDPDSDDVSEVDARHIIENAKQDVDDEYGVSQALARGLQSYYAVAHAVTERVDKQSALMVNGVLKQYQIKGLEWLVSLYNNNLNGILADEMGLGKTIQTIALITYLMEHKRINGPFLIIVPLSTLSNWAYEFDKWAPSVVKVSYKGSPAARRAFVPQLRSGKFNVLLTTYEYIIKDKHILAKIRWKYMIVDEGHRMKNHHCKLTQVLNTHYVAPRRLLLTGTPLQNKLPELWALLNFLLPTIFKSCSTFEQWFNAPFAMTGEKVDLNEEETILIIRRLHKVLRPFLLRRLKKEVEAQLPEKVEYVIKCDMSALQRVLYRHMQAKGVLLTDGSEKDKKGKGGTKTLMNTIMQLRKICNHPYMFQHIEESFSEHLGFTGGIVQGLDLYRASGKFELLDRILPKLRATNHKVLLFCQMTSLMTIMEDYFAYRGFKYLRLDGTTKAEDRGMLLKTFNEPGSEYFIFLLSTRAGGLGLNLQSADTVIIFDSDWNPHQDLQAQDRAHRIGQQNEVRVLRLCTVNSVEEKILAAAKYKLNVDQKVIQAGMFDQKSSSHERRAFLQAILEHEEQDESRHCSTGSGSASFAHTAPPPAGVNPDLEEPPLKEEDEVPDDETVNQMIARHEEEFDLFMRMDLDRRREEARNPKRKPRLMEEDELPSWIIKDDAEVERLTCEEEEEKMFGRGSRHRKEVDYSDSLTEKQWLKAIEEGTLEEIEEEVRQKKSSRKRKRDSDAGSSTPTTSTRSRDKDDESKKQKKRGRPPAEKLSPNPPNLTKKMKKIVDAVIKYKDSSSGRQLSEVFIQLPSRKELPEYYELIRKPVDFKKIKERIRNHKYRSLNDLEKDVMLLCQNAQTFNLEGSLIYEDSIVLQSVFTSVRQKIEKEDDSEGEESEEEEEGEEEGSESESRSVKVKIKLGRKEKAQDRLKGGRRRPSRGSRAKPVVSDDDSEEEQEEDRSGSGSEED
T2 sequence (P51531 whole entry): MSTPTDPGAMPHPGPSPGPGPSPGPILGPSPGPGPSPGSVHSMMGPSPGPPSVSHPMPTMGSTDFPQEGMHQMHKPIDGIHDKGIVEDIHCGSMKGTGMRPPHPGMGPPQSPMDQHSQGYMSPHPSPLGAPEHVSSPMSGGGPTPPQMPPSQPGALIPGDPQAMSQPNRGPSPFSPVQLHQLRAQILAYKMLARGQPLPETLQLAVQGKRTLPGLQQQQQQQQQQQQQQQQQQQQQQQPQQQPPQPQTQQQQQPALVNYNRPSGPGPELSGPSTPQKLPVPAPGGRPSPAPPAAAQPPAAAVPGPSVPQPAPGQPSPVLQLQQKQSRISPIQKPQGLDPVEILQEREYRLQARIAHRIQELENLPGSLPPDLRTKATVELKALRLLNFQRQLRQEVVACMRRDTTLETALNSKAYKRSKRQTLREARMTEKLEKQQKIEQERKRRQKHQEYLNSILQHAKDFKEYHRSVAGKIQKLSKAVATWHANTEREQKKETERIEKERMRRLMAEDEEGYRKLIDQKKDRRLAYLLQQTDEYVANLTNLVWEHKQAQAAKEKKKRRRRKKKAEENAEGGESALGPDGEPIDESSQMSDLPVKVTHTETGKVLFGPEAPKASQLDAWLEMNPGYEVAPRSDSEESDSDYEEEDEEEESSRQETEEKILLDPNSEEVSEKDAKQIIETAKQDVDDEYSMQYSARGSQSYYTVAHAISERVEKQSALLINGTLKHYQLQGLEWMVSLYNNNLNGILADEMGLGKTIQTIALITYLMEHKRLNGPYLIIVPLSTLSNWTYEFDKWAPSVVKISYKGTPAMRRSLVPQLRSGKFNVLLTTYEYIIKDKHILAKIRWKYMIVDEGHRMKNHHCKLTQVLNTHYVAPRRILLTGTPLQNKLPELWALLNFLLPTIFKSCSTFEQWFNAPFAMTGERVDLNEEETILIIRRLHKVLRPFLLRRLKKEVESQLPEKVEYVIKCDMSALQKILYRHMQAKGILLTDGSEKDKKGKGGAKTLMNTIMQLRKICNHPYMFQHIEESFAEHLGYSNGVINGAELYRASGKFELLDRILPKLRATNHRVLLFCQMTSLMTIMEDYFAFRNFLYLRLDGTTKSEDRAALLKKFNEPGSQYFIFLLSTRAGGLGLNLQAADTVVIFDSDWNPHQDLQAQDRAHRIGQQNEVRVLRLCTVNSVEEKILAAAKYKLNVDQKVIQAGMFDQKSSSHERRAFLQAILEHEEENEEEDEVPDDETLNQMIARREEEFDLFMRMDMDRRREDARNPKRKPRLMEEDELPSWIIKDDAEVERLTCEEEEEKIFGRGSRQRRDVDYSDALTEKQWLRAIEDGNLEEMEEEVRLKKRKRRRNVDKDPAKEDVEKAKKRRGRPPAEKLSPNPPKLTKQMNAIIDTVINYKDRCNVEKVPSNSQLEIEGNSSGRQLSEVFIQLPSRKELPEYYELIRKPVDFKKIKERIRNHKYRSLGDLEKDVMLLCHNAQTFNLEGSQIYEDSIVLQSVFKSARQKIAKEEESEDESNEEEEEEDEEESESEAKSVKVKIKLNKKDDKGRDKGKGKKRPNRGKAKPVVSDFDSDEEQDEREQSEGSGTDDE

Take `CO[C@@H]1CN(c2cccc(-c3csc(NC(=O)CNC(=O)c4ccn(S(C)(=O)=O)c4)n3)c2)CC[C@@H]1O` (racemic) [Compound 158]: the IC50 on BRG-1 (read-out: BRG1 IP50 (μM)*) and at BRM (read-out: BRM IP50 (μM)*) was above 0.01 µM each time.
In the case of `C[C@H]1C[C@H](C)CN(c2cccc(-c3csc(NC(=O)CNC(=O)c4ccn(S(C)(=O)=O)c4)n3)c2)C1` (racemic) [Compound 187], the IC50 at BRG-1 (read-out: BRG1 IP50 (μM)*) and on BRM (read-out: BRM IP50 (μM)*) was above 0.01 µM each time.
Consider `CO[C@@H]1CN(c2cccc(-c3csc(NC(=O)CNC(=O)c4ccn(S(C)(=O)=O)c4)n3)c2)C[C@H]1OC` (racemic) [Compound 198], for which the IC50 at BRG-1 (read-out: BRG1 IP50 (μM)*) and on BRM (read-out: BRM IP50 (μM)*) was above 0.01 µM each time.
Turning to `CO[C@H]1CN(c2cccc(-c3csc(NC(=O)CNC(=O)c4ccn(C(C)(C)C)c4)n3)n2)CC[C@@H]1O` (racemic) [Compound 310], the results for the IC50 on BRG-1 (read-out: BRG1 IP50 (μM)*) and on BRM (read-out: BRM IP50 (μM)*) were above 0.1 µM and above 0.01 µM, respectively.
Taken in the same sequence, the figures for `C[C@@H]1CC(c2cccc(-c3csc(NC(=O)CNC(=O)c4ccn(S(C)(=O)=O)c4)n3)n2)=C[C@H](C)O1` (racemic) [Compound 350, N-(2-((4-(6-((cis)-2,6-dimethyl-3,6-dihydro-2H-pyran-4-yl)pyridin-2-yl)thiazol-2-yl)amino)-2-oxoethyl)-1-(methylsulfonyl)-1H-pyrrole-3-carboxamide] were below 0.01 µM and below 0.01 µM.
For the compound `C[C@@H]1CC(c2cccc(-c3csc(NC(=O)CNC(=O)c4ccn(S(C)(=O)=O)c4)n3)c2)=C[C@H](C)O1` (racemic) [Compound 391], the IC50 on BRG-1 (read-out: BRG1 IP50) and at BRM (read-out: BRM IP50) was below 0.01 µM each time.
In the case of `CS(=O)(=O)n1ccc(C(=O)NCC(=O)Nc2nc(-c3cccc([C@@H]4CCCCO4)c3)cs2)c1` (racemic) [Compound 392], the IC50 at BRG-1 (read-out: BRG1 IP50) and at BRM (read-out: BRM IP50) was above 0.01 µM throughout.
On to `CS(=O)(=O)n1ccc(C(=O)NCC(=O)Nc2nc(-c3cccc(N4C[C@H]5C[C@@H]4C[C@H]5O)c3)cs2)c1` (racemic) [Compound 468], for which the IC50 on BRG-1 (read-out: BRG1 IP50) and at BRM (read-out: BRM IP50) was above 0.1 µM each time.
`CS(=O)(=O)n1ccc(C(=O)NCC(=O)Nc2nc(-c3cccc(N4C[C@H]5C[C@@H]4C[C@@H]5O)c3)cs2)c1` (racemic) [Compound 500]: the IC50 at BRG-1 (read-out: BRG1 IP50) was above 0.1 µM; at BRM (read-out: BRM IP50) it was above 0.01 µM.
For `C[C@@H]1CO[C@@H]2CN(c3cccc(-c4csc(NC(=O)CNC(=O)c5ccn(C(C)(C)C)c5)n4)n3)C[C@H]12` (racemic) [Compound 649] the same measures were above 0.01 µM and above 0.01 µM.
Taken in the same sequence, the figures for `CC(C)(C)n1ccc(C(=O)NCC(=O)Nc2nc(-c3cccc(N4CC[C@@H]5CCO[C@H]5C4)n3)cs2)c1` (racemic) [Compound 650] were above 0.1 µM and above 0.01 µM.
Taken in the same sequence, the figures for `C[C@@H]1CCN(c2cccc(-c3csc(NC(=O)CNC(=O)c4ccn(C(C)(C)C)c4)n3)n2)C[C@H]1F` (racemic) [Compound 702, 1-tert-butyl-N-[2-[[4-[6-[(3S,4R)-3-fluoro-4-methyl-1-piperidyl]-2-pyridyl]thiazol-2-yl]amino]-2-oxo-ethyl]pyrrole-3-carboxamide] were above 0.1 µM and above 0.01 µM.
As to `CC(C)(C)n1ccc(C(=O)NCC(=O)Nc2nc(-c3cccc(N4C[C@H]5CC(F)(F)[C@H]5C4)n3)cs2)c1` (racemic) [Compound 703], the IC50 on BRG-1 (read-out: BRG1 IP50) and on BRM (read-out: BRM IP50) was above 0.1 µM throughout.
On to `C[C@@H]1CN(c2cccc(-c3csc(NC(=O)CNC(=O)c4ccn(C(C)(C)C)c4)n3)n2)C[C@@H]1F` (racemic) [Compound 724], for which the IC50 on BRG-1 (read-out: BRG1 IP50) and on BRM (read-out: BRM IP50) was above 0.01 µM throughout.
On to `C[C@@H]1CN(c2cccc(-c3csc(NC(=O)CNC(=O)c4ccn([C@]5(C)CCOC5)c4)n3)n2)C[C@H](C)O1` (single isomer, unassigned) [Compound 490], for which the IC50 on BRG-1 (read-out: BRG1 IP50) was above 0.1 µM; at BRM (read-out: BRM IP50) it was above 0.01 µM.
With `C[C@@H]1CN(c2cccc(-c3csc(NC(=O)CNC(=O)c4ccn([C@@]5(C)CCOC5)c4)n3)n2)C[C@H](C)O1` (single isomer, unassigned) [Compound 491], the IC50 at BRG-1 (read-out: BRG1 IP50) and on BRM (read-out: BRM IP50) was above 0.01 µM each time.
`CN(C)Cc1cc(-c2cccc(-c3csc(NC(=O)CNC(=O)c4ccn(S(C)(=O)=O)c4)n3)c2)ccn1` [Compound 1, N-(2-((4-(3-(2-((dimethylamino)methyl)pyridin-4-yl)phenyl)thiazol-2-yl)amino)-2-oxoethyl)-1-(methylsulfonyl)-1H-pyrrole-3-carboxamide]: the IC50 at BRG-1 (read-out: BRG1 IP50 (μM)*) and at BRM (read-out: BRM IP50 (μM)*) was below 0.01 µM each time.
As for `CC(C)n1ccc(C(=O)NCC(=O)Nc2nc(-c3cccc(-c4ccn(C)n4)c3)cs2)c1` [Compound 2, 1-isopropyl-N-(2-((4-(3-(1-methyl-1H-pyrazol-3-yl)phenyl)thiazol-2-yl)amino)-2-oxoethyl)-1H-pyrrole-3-carboxamide], the IC50 at BRG-1 (read-out: BRG1 IP50 (μM)*) and at BRM (read-out: BRM IP50 (μM)*) was above 0.01 µM throughout.
Turning to `CC(C)(C)n1cnc(C(=O)NCC(=O)Nc2nc(-c3cccc(C#N)c3)cs2)c1` [Compound 3, 1-(tert-butyl)-N-(2-((4-(3-cyanophenyl)thiazol-2-yl)amino)-2-oxoethyl)-1H-imidazole-4-carboxamide], the IC50 on BRG-1 (read-out: BRG1 IP50 (μM)*) and at BRM (read-out: BRM IP50 (μM)*) was above 1 µM throughout.
Regarding `CS(=O)(=O)n1ccc(C(=O)NCC(=O)Nc2nc(-c3cnn(-c4ccncc4)c3)cs2)c1` [Compound 6, 1-(methylsulfonyl)-N-(2-oxo-2-((4-(1-(pyridin-4-yl)-1H-pyrazol-4-yl)thiazol-2-yl)amino)ethyl)-1H-pyrrole-3-carboxamide], the IC50 at BRG-1 (read-out: BRG1 IP50 (μM)*) and on BRM (read-out: BRM IP50 (μM)*) was above 0.1 µM throughout.
With `CN1CCc2ccc(-c3csc(NC(=O)CNC(=O)c4ccn(C(C)(C)C)c4)n3)cc2C1=O` [Compound 7, 1-(tert-butyl)-N-(2-((4-(2-methyl-1-oxo-1,2,3,4-tetrahydroisoquinolin-7-yl)thiazol-2-yl)amino)-2-oxoethyl)-1H-pyrrole-3-carboxamide], the IC50 at BRG-1 (read-out: BRG1 IP50 (μM)*) and at BRM (read-out: BRM IP50 (μM)*) was above 0.01 µM each time.
On to `CC(C)(O)Cn1ccc(-c2cccc(-c3csc(NC(=O)CNC(=O)c4ccn(C(C)(C)C)c4)n3)c2)n1` [Compound 8, 1-(tert-butyl)-N-(2-((4-(3-(1-(2-hydroxy-2-methylpropyl)-1H-pyrazol-3-yl)phenyl)thiazol-2-yl)amino)-2-oxoethyl)-1H-pyrrole-3-carboxamide], for which the IC50 at BRG-1 (read-out: BRG1 IP50 (μM)*) and at BRM (read-out: BRM IP50 (μM)*) was above 0.01 µM in each case.
Turning to `CS(=O)(=O)n1ccc(C(=O)NCC(=O)Nc2nc(-c3cccc(-c4ccnc(N)c4)c3)cs2)c1` [Compound 9, N-(2-((4-(3-(2-aminopyridin-4-yl)phenyl)thiazol-2-yl)amino)-2-oxoethyl)-1-(methylsulfonyl)-1H-pyrrole-3-carboxamide], the IC50 on BRG-1 (read-out: BRG1 IP50 (μM)*) and on BRM (read-out: BRM IP50 (μM)*) was below 0.01 µM throughout.
`C[C@@H]1CN(c2cccc(-c3csc(NC(=O)CNC(=O)c4ccn(S(C)(=O)=O)c4)n3)c2)C[C@H](C)O1` [Compound 10]: the IC50 at BRG-1 (read-out: BRG1 IP50 (μM)*) and at BRM (read-out: BRM IP50 (μM)*) was below 0.01 µM each time.
With `CO[C@H]1CCCN(c2cccc(-c3csc(NC(=O)CNC(=O)c4ccn(S(C)(=O)=O)c4)n3)c2)C1` [Compound 11, (S)—N-(2-((4-(3-(3-methoxypiperidin-1-yl)phenyl)thiazol-2-yl)amino)-2-oxoethyl)-1-(methylsulfonyl)-1H-pyrrole-3-carboxamide], the IC50 on BRG-1 (read-out: BRG1 IP50 (μM)*) and at BRM (read-out: BRM IP50 (μM)*) was above 0.01 µM in each case.
For the compound `Cn1c(=O)ccc2ccc(-c3csc(NC(=O)CNC(=O)c4ccn(S(C)(=O)=O)c4)n3)cc21` [Compound 12, N-(2-((4-(1-methyl-2-oxo-1,2-dihydroquinolin-7-yl)thiazol-2-yl)amino)-2-oxoethyl)-1-(methylsulfonyl)-1H-pyrrole-3-carboxamide], the IC50 at BRG-1 (read-out: BRG1 IP50 (μM)*) and on BRM (read-out: BRM IP50 (μM)*) was above 0.01 µM each time.
As to `CN(C)C(=O)CN(C)c1cc(-c2cccc(-c3csc(NC(=O)CNC(=O)c4ccn(S(C)(=O)=O)c4)n3)c2)ccn1` [Compound 13, N-(2-((4-(3-(2-((2-(dimethylamino)-2-oxoethyl)(methyl)amino)pyridin-4-yl)phenyl)thiazol-2-yl)amino)-2-oxoethyl)-1-(methylsulfonyl)-1H-pyrrole-3-carboxamide], the IC50 on BRG-1 (read-out: BRG1 IP50 (μM)*) and at BRM (read-out: BRM IP50 (μM)*) was above 0.01 µM each time.
`CS(=O)(=O)n1ccc(C(=O)NCC(=O)Nc2nc(-c3cccc(-c4ccnc(C5(C(=O)O)CC5)c4)c3)cs2)c1` [Compound 14, 1-(4-(3-(2-(2-(1-(methylsulfonyl)-1H-pyrrole-3-carboxamido)acetamido)thiazol-4-yl)phenyl)pyridin-2-yl)cyclopropanecarboxylic acid]: the IC50 at BRG-1 (read-out: BRG1 IP50 (μM)*) and at BRM (read-out: BRM IP50 (μM)*) was below 0.01 µM throughout.
As to `CN(CC(=O)O)c1cc(-c2cccc(-c3csc(NC(=O)CNC(=O)c4ccn(S(C)(=O)=O)c4)n3)c2)ccn1` [Compound 15, 2-(methyl(4-(3-(2-(2-(1-(methylsulfonyl)-1H-pyrrole-3-carboxamido)acetamido)thiazol-4-yl)phenyl)pyridin-2-yl)amino)acetic acid], the IC50 on BRG-1 (read-out: BRG1 IP50 (μM)*) and on BRM (read-out: BRM IP50 (μM)*) was below 0.01 µM each time.
With `CNC(=O)CN(C)c1cc(-c2cccc(-c3csc(NC(=O)CNC(=O)c4ccn(S(C)(=O)=O)c4)n3)c2)ccn1` [Compound 16, N-(2-((4-(3-(2-(methyl(2-(methylamino)-2-oxoethyl)amino)pyridin-4-yl)phenyl)thiazol-2-yl)amino)-2-oxoethyl)-1-(methylsulfonyl)-1H-pyrrole-3-carboxamide], the IC50 at BRG-1 (read-out: BRG1 IP50 (μM)*) and on BRM (read-out: BRM IP50 (μM)*) was below 0.01 µM in each case.
Regarding `Cc1nc(-c2cccc(-c3csc(NC(=O)CNC(=O)c4ccn(S(C)(=O)=O)c4)n3)c2)c[nH]1` [Compound 17], the IC50 at BRG-1 (read-out: BRG1 IP50 (μM)*) and at BRM (read-out: BRM IP50 (μM)*) was above 0.01 µM each time.

The values are drawn from patent US20230079819A1, “COMPOUNDS AND USES THEREOF” (Foghorn Therapeutics Inc., priority 2019, published 2023).
